# Earlier results as cited in patent publication US20090202609A1, “MEDICAL DEVICE WITH COATING COMPOSITION” (priority 2008, published 2009).
# Legend:
# [1] = systemic
# bacteria = details: effective systemic concentration
smiles,measurement,setting,value
NC[C@H]1O[C@H](O[C@H]2[C@H](O)[C@@H](O[C@H]3O[C@H](CO)[C@@H](O)[C@H](N)[C@H]3O)[C@H](N)C[C@@H]2N)[C@H](N)C[C@@H]1O [tobramycin],system-wide toxic concentration,[1],about 400 mcg/ml
same,effective concentration to actively control bacteria,bacteria,≤ 4 µg/mL
